Test results from US20070190191A1, “Use of geraniol in antitumoral therapy” (priority 2003, published 2007).
Where two headings read alike, the source gives them in different places.

How the values were obtained:
growing Caco-2 cells = test: Cell growth (sulforhodamine B), exponentially growing Caco-2 cells; format: cell-based, human
Description: (§1) In all experiments, cells were seeded at 6×10^5 cells on culture dishes (100 mm in diameter), or at 4500 cells/well in 96-well plates. Caco-2 and SW620 cells were grown in DMEM supplemented with 3% horse serum, 5 μg/ml transferrin, 5 ng/ml selenium, and 10 μg/ml insulin (TSI defined medium; Invitrogen, SARL, Cergy-Pontoise, France). Geraniol (Sigma-Aldrich, Saint Louis, Mo.) was dissolved in absolute ethanol, and 5-FU (Teva Pharmachemie B.V., Mijdrecht, The Netherlands) was diluted in PBS at a final concentration of 50 mg/ml. The compounds were added to the culture medium 24 h or 7 days after cell seeding (final concentration of ethanol, 0.1%).
(§2) Cells were seeded in 96-well plates and incubated for different times. Cell growth was stopped by addition of 50 μl of trichloroacetic acid (50%, v/v), and the protein content of each well was determined by staining with sulforhodamine B (Skehan et al., 1990): Absorbance was determined at 490 nm.
(§3) The comparative effects of geraniol and 5-FU were studied on exponentially growing Caco-2 and SW620 cells. Cells were cultured as described in Example 1. […]
(§4) The effects of graded doses of 5-FU alone or in combination with geraniol were determined. […]

Caco-2 cells [1] = test: Cytotoxicity by LDH release into the culture medium; format: cell-based, human; settings: confluent Caco-2 (7 days after seeding), 4 days treatment, geraniol alone 400 μM
Description: To determine cytotoxicity, cells (4×10^5/well) were seeded on culture dishes (100 nm diameter) and incubated in DMEM culture medium supplemented with 3% FCS. On the 7th day after seeding, cells were incubated with 5-FU (5 μM) alone or together with geraniol (IC30: 400 μM) and 5-FU for 1, 2, 3, and 4 days. Then, cytotoxicity was assessed by determining the release of lactate dehydrogenase (LDH) (Skehan et al., 1990) into the culture medium using the Cyto Tox R nonradioactive cytotoxicity assay kit (Promega, Madison, Wis.).

Caco-2 cells [2] = test: Electron microscopy of Caco-2 cell morphological differentiation; format: cell-based, human; settings: confluent Caco-2 cells (7 days after seeding) treated 4 days; geraniol 400 μM, 5-FU 5 μM
Description: Caco-2 and SW620 cells were obtained from the European Collection of Animal Cell Culture (CERDIC, Sophia Antipolis, France) and were cultured in 75-cm^2 Falcon flasks containing Dulbecco's modified Eagle's medium (DMEM) and 25 mM glucose supplemented with 10% heat-inactivated horse serum, 100 U/ml penicillin, and 100 μg/ml streptomycin. Cells were incubated at 37° C. in a humidified atmosphere of 5% CO2 and subcultured after trypsinization (0.5% trypsin/2.6 mM EDTA). They were used for up to 30 to 40 passages.
as §1
In all experimental conditions, culture medium, geraniol, and 5-FU were replaced every 24 h. […]

confluent Caco-2 cells = test: Cell growth (sulforhodamine B), confluent Caco-2 cells; format: cell-based, human; settings: for cell loss: confluent Caco-2, 8 days treatment, geraniol 400 μM (IC30), 5-FU 1 μM
Description: as §1
In all experimental conditions, culture medium, geraniol, and 5-FU were replaced every 24 h. Cells were harvested after various times, washed three times with phosphate-buffered saline (PBS) (pH 7.2), and kept at −70° C. until assays were performed.
as §2
The effects of increasing doses of 5-FU alone or in combination with geraniol were determined after treatment for 8 days. […] Geraniol and 5-FU were replaced every 24 h.
Statistical differences between control and geraniol-treated cells were evaluated using the Student's t test. Differences were considered to be significant for values of p<0.05.

[3] = tested on: human colonic tumors TC-118; test: Growth of 5-FU-resistant human colonic tumors transplanted in nude mice; format: in vivo, Swiss nu/nu mice; settings: day 14
Description: The effect of geraniol and 5-FU were evaluated in vivo on the growth of 5-FU-resistant human colonic tumors ([…]) transplanted in Swiss nu/nu mice. TC 118 is the hepatic metastasis of a primary human colorectal tumor is used as xénogreffe. Fresh fragments of the tumor are implanted in the subcutaneous tissue of female Swiss nulnu mice of from 5 to 6 weeks. The appearance of the tumor is watched by a bi-weekly exam of mice and the time of appearance is registered. Tumors are detected by palpation as soon as they measure approximately 3×3 mm (that is approximately 15 mm^3). […] Tumors are measured with a calliper rule, 3 times a week, until the sacrifice of the animal. Two perpendicular diameters are measured and the volumes of tumors are calculated according to the following equation: V=A×B^2/2 where A represents the large diameter and B the small diameter. The relative tumoral volume (VTR) is calculated according to the formula: VTR=Volume at day D/Initial volume […] When these molecules were given in combination, they were injected simultaneously. A control group was treated with excipient (NaCl 0.9%). The mean value of the VTR was calculated for every group on every day corresponding to the measure of tumors. The curves of tumoral growth were obtained in every experimental group or for every individual tumor by reporting the values of the VTR as a function of time (expressed in days after the beginning of the treatment). The measures were individually recorded, allowing a follow-up of the tumoral growth. […] Mice not presenting tumors were sacrificed at the same time. The percentage of inhibition of the tumoral growth was calculated at day 14 for the various treatments, according to the formula: (VTR of treated mice/VTR of control mice)×100. Results

Caco-2 cells [4] = test: Caco-2 cell growth with CPT-11 and geraniol; format: cell-based; settings: Homo sapiens, 192 h, Caco-2, 8 days treatment
Description: as §2
The effect of various doses of CPT-11 alone or in combination with geraniol was determined after 8 days of treatment of Caco-2 cells. Concentrations of CPT-11 of from 0.2 to 0.8 μM were tested and geraniol was used at a concentration which induces a 10% inhibition of the cell growth (IC10).

Caco-2 cells [5] = test: Brush-border membrane hydrolase assays (functional differentiation); format: cell-based; settings: Homo sapiens, 168 h, 400 μM geraniol, Caco-2 at confluency (7 days after seeding), brush-border membranes
Description: Brush-border membranes were isolated as described by Schmitz et al. (1973). Sucrase activity was determined according to Messer and […] (1966) and lactase activity according to Koldovsky et al. (1969). Alkaline phosphatase activity was assayed by the method of Garen and […] (1960), and N-aminopeptidase activity was determined according to Maroux et al. (1973).

SW620 cells = test: Cell growth (sulforhodamine B), growing SW620 cells; format: cell-based; settings: Homo sapiens, SW-620, 192 h, 8 days treatment, in the combination geraniol at IC30, read-out: IC50 5-FU, SW620
Description: as §1, §2, §3, §4

Caco-2 cells [6] = test: Apoptosis: DNA fragmentation ladder and annexin V-FITC labeling; format: cell-based, human; settings: exponentially growing and confluent Caco-2 cells, 24 h; 5-FU 5 μM, geraniol IC30 400 μM
Description: After trypsinization, cells were collected by centrifugation and stored at −80° C. Apoptotic DNA was separated from genomic DNA, using the Suicide Track DNA ladder kit (Oncogene Research Products, Cambridge, Mass.). DNA fragments were separated by electrophoresis and stained with ethidium bromide. Apoptosis was further tested by evaluating phosphatidylserine membrane externalization by measuring annexin V-conjugated fluorescein isothiocyanate (FITC) binding using an Annexin V-FITC kit (Medsystems Diagnostics GmbH, Vienna, Austria). Briefly, cells were washed in cold PBS without calcium and, for each sample, 5×10^5 cells were resuspended in 100 μl of reaction buffer (10 μl of binding buffer 10-fold concentrated, 10 μl of propidium iodide, 1 μl of annexin V-FITC, and 79 μl of deionized water. After incubation for 15 min in the dark at room temperature, each sample was diluted with binding buffer to obtain an appropriate final volume for flow cytometry.

Q: How did the IC30 of geraniol (growing Caco-2 cells; growing Caco-2 cells) turn out when CC(C)=CCC/C(C)=C/CO [geraniol] was run?
A: 200 µM

Q: And the “cytotoxic effect (LDH release)” value (Caco-2 cells [1])?
A: no cytotoxic effect

Q: And the “brush-border microvilli (transmission electron microscopy)” value (Caco-2 cells [2])?
A: microvilli were scarce, and they were shorter

Q: And the IC30 of geraniol (confluent Caco-2 cells; Caco-2 cells at confluency)?
A: 400 µM

Q: What about the cell loss (confluent Caco-2 cells) of the same compound?
A: 30%

Q: And the “inhibition of the tumoral growth” value ([3]; geraniol alone 150 mg/kg/day i.p. for 5 days)?
A: 26%

Q: And the IC50 (Caco-2 cells [4]; in the combination CPT-11 at IC10, read-out: IC50 Geraniol)?
A: 200 ± 0.03 µM

Q: What about the inhibition at 400 µM (Caco-2 cells [5]; read-out: inhibition of the increase in alkaline phosphatase activity) of the same compound?
A: ~50%

Q: And the inhibition at 400 µM (Caco-2 cells [5]; read-out: inhibition of the increase in aminopeptidase activity)?
A: ~50%

Q: What about the inhibition at 400 µM (Caco-2 cells [5]; read-out: inhibition of the increase of lactase activity) of the same compound?
A: ~70%

Q: And the inhibition at 400 µM (Caco-2 cells [5]; read-out: inhibition of the increase of sucrase activity)?
A: ~90%

Q: With CCc1c2c(nc3ccc(OC(=O)N4CCC(N5CCCCC5)CC4)cc13)-c1cc3c(c(=O)n1C2)COC(=O)[C@]3(O)CC [CPT-11, irinotecan, reference compound] as the compound, how does the IC50 (Caco-2 cells [4]; in the combination geraniol at IC10, read-out: IC50 CPT-11) read?
A: 0.7 µM

Q: How did the IC50 (growing Caco-2 cells; Homo sapiens, Caco-2, 8 days treatment from 24 h after seeding, in the combination geraniol at its IC30 (200 μM), read-out: IC50 5-FU, Caco-2 Growing) turn out when O=c1[nH]cc(F)c(=O)[nH]1 [5-FU, 5-fluorouracil] was run?
A: 0.4 µM

Q: What about the IC50 (SW620 cells) of the same compound?
A: 2 µM

Q: What about the “brush-border microvilli (transmission electron microscopy)” value (Caco-2 cells [2]) of the same compound?
A: did not modify brush-border membranes

Q: What about the IC50 (confluent Caco-2 cells; Homo sapiens, Caco-2, 192 h, 8 days treatment, in the combination geraniol at its IC30 (400 μM), read-out: IC50 5-FU, Caco-2 Confluent) of the same compound?
A: 25 µM

Q: And the cell loss (confluent Caco-2 cells)?
A: 25%

Q: What about the “inhibition of the tumoral growth” value ([3]; 5-FU alone 20 mg/kg/day i.p. for 5 days) of the same compound?
A: no effect

Q: And the “inhibition of the tumoral growth” value ([3]; 5-FU alone 40 mg/kg/day i.p. for 5 days)?
A: 30%

Q: What about the “annexin V labeling (flow cytometry)” value (Caco-2 cells [6]) of the same compound?
A: absence of annexin V labeling

Q: And the “apoptotic DNA fragmentation ladders” value (Caco-2 cells [6])?
A: did not exhibit apoptotic DNA fragmentation ladders
